Results published in ChEMBL document CHEMBL1201862, “PubChem BioAssay data set” (2004).
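Tested at 5 concentrations; 48 h exposure; 96-well plates; endpoints linearly interpolated, else capped at highest concentration. At the GI50, growth is halved.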 Calls of active or inactive are those of the source. Rule as the data show it: active = GI50 up to about 1.1 µM and inactive = higher.

Columns and labels:
Assay in all cases: DTP human tumour cell line panel, 48 h
[1] = test system: UACC-257
[2] = test system: NCI-H522
[3] = test system: UO-31
[4] = test system: DMS-114
[5] = test system: NCI-H460
[6] = test system: HL-60
[7] = test system: LOX IMVI
[8] = test system: CCRF-CEM
[9] = test system: HOP-62
[10] = test system: SF-268
[11] = test system: LXFL 529
[12] = test system: RPMI-8226
[13] = test system: HT-29
[14] = test system: RXF 393
[15] = test system: TK-10
[16] = test system: OVCAR-5
[17] = test system: SNB-75
[18] = test system: Malme-3M
[19] = test system: K562
[20] = test system: HCC 2998
[21] = test system: DLD-1
[22] = test system: OVCAR-3
[23] = test system: CAKI-1
[24] = test system: SK-MEL-2
[25] = test system: A498
[26] = test system: ACHN
[27] = test system: U-251
[28] = test system: NCI-H226
[29] = test system: SK-MEL-28
[30] = test system: OVCAR-4
[31] = test system: RXF 631
[32] = test system: HOP-18
[33] = test system: SNB-19
[34] = test system: SF-539
[35] = test system: M14
[36] = test system: SK-OV-3
[37] = test system: COLO 205
[38] = test system: MOLT-4
[39] = test system: SW-620
[40] = test system: HCT-15
[41] = test system: SR
[42] = test system: SF-295
[43] = test system: EKVX
[44] = test system: NCI-H23
[45] = test system: OVCAR-8
[46] = test system: UACC-62
[47] = test system: HCT-116
[48] = test system: 786-0
[49] = test system: KM12
[50] = test system: SK-MEL-5
[51] = test system: XF498
[52] = test system: SNB-78
[53] = test system: IGROV-1
[54] = test system: A549
[55] = test system: SN12C
[56] = test system: KM-20L2
[57] = test system: M19-MEL
[58] = test system: HOP-92
[59] = test system: DMS-273

Measured: GI50

CC1(C)CC(=O)C(C(=O)C(=O)NC2=C(Cl)C(=O)c3ccccc3C2=O)C(=O)C1
46.5 µM: [40]
inactive: [1] > 100 µM | [2] 24 µM | [3] 57.4 µM | [4] 67.9 µM | [5] 51.2 µM | [6] 20.1 µM | [7] 80.9 µM | [8] 36 µM | [9] > 100 µM | [10] > 100 µM | [11] 49.1 µM | [12] 34.8 µM | [13] 80.7 µM | [14] 70.8 µM | [15] > 100 µM | [16] > 100 µM | [17] 71.1 µM | [18] > 100 µM | [19] 32 µM | [20] 45.4 µM | [21] > 100 µM | [22] 58.6 µM | [23] 71.8 µM | [24] > 100 µM | [25] > 100 µM | [26] 91.4 µM | [27] 82.2 µM | [28] 39.4 µM | [29] > 100 µM | [30] 63.5 µM | [31] 82.4 µM | [32] > 100 µM | [33] > 100 µM | [34] > 100 µM | [35] > 100 µM | [36] > 100 µM | [37] 38.7 µM | [38] 20.1 µM | [39] > 100 µM | [41] 30.8 µM | [42] > 100 µM | [43] > 100 µM | [44] > 100 µM | [45] > 100 µM | [46] 45.5 µM | [47] > 100 µM | [48] > 100 µM | [49] 42.3 µM | [50] 73.8 µM | [51] > 100 µM | [52] > 100 µM | [53] > 100 µM | [54] > 100 µM | [55] 73.6 µM | [56] > 100 µM | [57] 61.5 µM

O=C1C=Cc2ncccc2C1=O
18.1 µM: [40]
inactive: [1] 20 µM | [2] 15.7 µM | [3] 30.5 µM | [4] 16.5 µM | [5] 20 µM | [6] 5.22 µM | [7] 13.5 µM | [8] 7.05 µM | [9] > 54.8 µM | [10] 34.4 µM | [11] 16.5 µM | [12] 24.1 µM | [13] 22.2 µM | [14] 20 µM | [15] > 44.9 µM | [16] > 44.2 µM | [17] 21.3 µM | [18] 29.9 µM | [19] 7.71 µM | [20] > 48.1 µM | [58] 21.1 µM | [21] 18.7 µM | [22] 23.9 µM | [23] 21.1 µM | [24] 18.5 µM | [25] > 54 µM | [26] 20.8 µM | [27] 24.4 µM | [28] > 44.9 µM | [29] 24.4 µM | [30] 5.77 µM | [59] 17 µM | [31] 21.4 µM | [32] > 52 µM | [33] > 78.3 µM | [34] 21.1 µM | [35] 18.1 µM | [36] 37.9 µM | [37] 18 µM | [38] 2.45 µM | [39] 15.4 µM | [42] 17.6 µM | [43] 23.5 µM | [44] 20.3 µM | [45] 16.3 µM | [46] 16.8 µM | [47] 16.9 µM | [48] 15.7 µM | [49] 33.7 µM | [50] 14.9 µM | [51] 24.6 µM | [52] 31 µM | [53] 32.2 µM | [54] 30.8 µM | [55] 21.2 µM | [56] > 45.9 µM

NC(=O)n1ncc(Cl)c(Cl)c1=O
> 100 µM: [40]
inactive: [1] > 100 µM | [2] > 100 µM | [3] > 100 µM | [4] > 100 µM | [5] > 100 µM | [6] 95.3 µM | [8] > 100 µM | [9] > 100 µM | [10] > 100 µM | [11] > 100 µM | [13] > 100 µM | [15] > 100 µM | [16] > 100 µM | [17] > 100 µM | [18] > 100 µM | [19] > 100 µM | [58] > 100 µM | [21] > 100 µM | [22] > 100 µM | [23] > 100 µM | [24] > 100 µM | [25] > 100 µM | [26] > 100 µM | [27] > 100 µM | [28] > 100 µM | [29] > 100 µM | [30] > 100 µM | [59] > 100 µM | [31] > 100 µM | [32] > 100 µM | [33] > 100 µM | [34] > 100 µM | [35] > 100 µM | [36] > 100 µM | [37] > 100 µM | [39] > 100 µM | [42] > 100 µM | [43] > 100 µM | [44] > 100 µM | [45] > 100 µM | [46] > 100 µM | [47] > 100 µM | [48] > 100 µM | [49] > 100 µM | [50] > 100 µM | [51] > 100 µM | [52] > 100 µM | [53] > 100 µM | [54] > 100 µM | [55] > 100 µM | [56] > 100 µM | [57] > 100 µM
